Consider 8 molecules from ChEMBL document CHEMBL4002554, “Terpenoids from Melampodium perfoliatum” (2016).

Assay [1] relates to Mus musculus. The experiment in a line: Anti-inflammatory activity in TPA-induced CD1 mouse ear acute inflammation model assessed as reduction in TPA-induced ear edema administered topically 10 mins prior to TPA challenge measured after 4 hrs. The format is functional.
The test system of assay [2] is Mus musculus. The experiment in a line: Anti-inflammatory activity in TPA-induced CD1 mouse ear acute inflammation model assessed as reduction in TPA-induced ear edema at 1 mg/ear administered topically 10 mins prior to TPA challenge measured after 4 hrs relative to control. The format is functional.

In the case of `COc1ccc2c(c1)c(CC(=O)O)c(C)n2C(=O)c1ccc(Cl)cc1` [INDOMETHACIN], in the assay with Mus musculus [1], the ID50 amounted to 0.24 µmol.

For the molecule `CC(C)=CC(=O)C[C@@]12O[C@@H]1CC[C@]1(C)O[C@](C)(C(O)CO)CC[C@@H]1OC2=O` (some centres not stated), in the assay on Mus musculus [1], the ID50 came out at 1.49 µmol and the inhibition entry was “Dose-dependent effect”.

As to `C=C1C(=O)O[C@@H]2/C=C(\C)[C@@H]3O[C@@H]3/C=C(/C(=O)OC)[C@H](OC(=O)[C@]3(C)O[C@@H]3C)[C@@H](OC(=O)[C@]3(C)O[C@@H]3C)[C@@H]12`, the “inhibition (INH)” value in the assay on Mus musculus [2] is below 50%.

`C=C1C(=O)O[C@@H]2/C=C(\C)CC/C=C(/C(=O)OC)[C@H](O)[C@@H](OC(=O)[C@]3(C)O[C@@H]3C)[C@@H]12`: in the assay with Mus musculus [1], the ID50 worked out at 1.15 µmol and the inhibition result is “Dose-dependent effect”. On the same counts, the results for `C=C1C(=O)O[C@@H]2/C=C(\C)[C@@H]3O[C@@H]3/C=C(/C(=O)OC)[C@H](O)[C@@H](OC(=O)[C@]3(C)O[C@@H]3C)[C@@H]12` [MELAMPODIN A] are 1.14 µmol and “Dose-dependent effect”. With `CC1(C)[C@H]2CC[C@@]34C[C@@H](CC[C@H]3[C@]2(C)CC[C@@H]1O)[C@@](O)(CO)C4`, in the assay with Mus musculus [2], the “inhibition (INH)” value was below 50%. As to `C=C1C(=O)O[C@H]2[C@H]1[C@H](OC(=O)[C@]1(C)O[C@@H]1C)[C@@H](OC(=O)[C@]1(C)O[C@@H]1C)/C(C(=O)OC)=C\CC[C@@]1(C)O[C@H]21`, the “inhibition (INH)” value in the assay on Mus musculus [2] was below 50%. With `C=C1C(=O)O[C@@H]2/C=C(\C)CC/C=C(/C(=O)OC)[C@H](O)[C@@H](OC(=O)/C(C)=C\C)[C@@H]12`, in the assay on Mus musculus [1], the ID50 was found to be 0.56 µmol and the inhibition entry is “Dose-dependent effect”.
